Legend:
[1] = molecular target: DQ2–CLIP complex (Homo sapiens, UniProt P01909+P01920); experiment: CLIP pre-conditioned peptide exchange assay; assay type: binding; conditions: CE-FL; for binding to DQ2–CLIP preparation / displacement of pre-bound CLIP peptide: pH 5.5, peptide:DQ2 5:1 ([Cy5-20-mer]=35 μM; [DQ2-CLIP complex]=7 μM)
[2] = test system: HLA-DQ2; experiment: DQ2-peptide binding; design: species or system human; conditions: single peptide binding; thrombin treated DQ2–αI; DQ2:peptide = 10:1 ([DQ2]=6 μM, [peptide]=0.6 μM); 48 h at 37 °C; phosphate buffer pH 7.3; CE-FL peak areas; error less than 4% in multiple repeats

Sequence of DQ2–CLIP complex (P01920 33-230 limits assumed, other chains not shown): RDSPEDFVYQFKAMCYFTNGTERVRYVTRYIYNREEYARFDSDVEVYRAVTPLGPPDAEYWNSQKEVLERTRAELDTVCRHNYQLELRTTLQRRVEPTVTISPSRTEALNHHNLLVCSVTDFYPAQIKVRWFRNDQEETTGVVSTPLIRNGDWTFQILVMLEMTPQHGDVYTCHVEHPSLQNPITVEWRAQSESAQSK

With Cy5-LQLQPFPQPELPYPQPELPY [Cy5-20-mer] the “binding to DQ2–CLIP preparation / displacement of pre-bound CLIP peptide” value [1] was “not at pH 5.5”, the “effect on dissociation kinetics of CLIP peptide from DQ2–CLIP complex” value ([1]; pH 7.3, with 20-mer (5:1, [Cy5-20-mer]=35 μM; [DQ2-CLIP complex]=7 μM) versus absence of 20-mer) was “did not affect the dissociation kinetics” and the “SDQ2-peptide / Stotal peptide (%) (binding capacity, fraction of bound peptide)” value [2] was 64%.
With Cy5-AAIAAVKEEAF [reference compound] the “binding to DQ2–CLIP preparation / displacement of pre-bound CLIP peptide” value [1] was “unable to bind”.

Source: publication PMC3382112 (Chemistry, an Asian journal, 2012)
